Source: US7947287B2, “Peptides for the treatment of cancer associated with the human papilloma virus (HPV) and other epithelial tumors” (Centro de Ingenieria Genetica y Biotecnolgia, priority 2001, dated 2011)
Bridges are numbered along the chain shown (N, C = ends). Where no end group is shown, it is not given here.

System: H-125 cells (Non-Small Lung Cell Cancer)
Assay: antitumor effect in human tumors implanted in nude mice
Type: in vivo, BalbC nude mice
Conditions: H-125 subcutaneous, 1 to 10 mg/Kg every other day for one month, FIG. 6
Experimental: For these experiments, 6-8 week old female BalbC nude mice were used. The tumor implantation was performed using H-125 cells (Non-Small Lung Cell Cancer) that were resuspended in saline solution (PBS) at 1000 000 cells/ml. Cell suspension was inoculated subcutaneously in the abdomen. Peptide administration (sequence 1 on the list) was made together with the cells and continued every other day until completing one month of treatment. In this assay, doses ranging between 1 and 10 mg/Kg of weight were evaluated. To examine the antitumor effect, parameters like tumor mass and survival of the animals were evaluated.

Sequence: CSVRQGPVQKC (disulfide 1-11 (inferred)) [sequence 1 on the list]
- inhibition of tumor progression: effective in terms of the inhibition of tumor progression
